Results as given in US6447801B1, “Anti-parasitic action of N,N-diethyl-m-toluamide (deet) and formulations that prolong its activity in the skin” (priority 1997, dated 2002).

Columns and labels:
insects = settings: normally; cited from earlier work
Amblyoma americanum = test: Tick attachment to rabbit ear, Amblyoma americanum; assay type: in vivo
Protocol: To determine the effect of DEET on tick attachment and feeding we used two species of ticks Amblyoma americanum and Dermacetor variabilis purchased from University of Oklahoma. Ticks were allowed to feed on the ears of male New Zealand white rabbits purchased from Charles River. For feeding, five ticks were introduced into a 60 μm sieve cell well (Fisher Scientific) which was attached to the ear of the rabbit with nail glue. Ticks were observed every 30 minutes for the first eight hours to assess skin attachment and feeding behavior. Tick attachment was defined as the minimum time required for 3 of the 5 ticks to attach to the ear. […] The observation was continued for 72 hours for both species of ticks. Separate rabbits were used for each species and for each treatment. […] All the ticks in this study were active until attachment.
In this series of experiments, the protective effect(s) of different concentrations of DEET and Lipodeet on the attachment of nymphs and adults of two species of ticks, A. americanum and D. variabilis, to the rabbit ear was evaluated. Experiments were set up wherein different concentrations (20% or 40% of DEET or Lipodeet were applied (0.2 ml of the samples to 10 cm^2 surface area), onto the dorsal side of the ear lobes of a rabbit. After allowing the preparation to dry for 30 min., sieve cups (Fisher Scientific, 1″ inner diameter) were then attached to the ear lobes using nail glue. Ten nymphs or five adult ticks were then introduced into the sieve cups every 24 hrs through a small slit made on the sieve membrane. Attachment of ticks to the skin was monitored every 24 hrs. for up to 72 hrs. after introduction of the ticks.
More than 60% of ticks used in our experiments were dead after contact with Lipodeet. Although a well-aerated sieve cup was used (1″ inner diameter), we initially thought that the tick mortality may be due to possible DEET vapor trapped within the sieve cup. Therefore, we designed experiments where one half of the surface area of skin within the sieve cup was treated with 40% Lipodeet and the other half was left untreated. Five adults ticks of A. americanum were then introduced into the sieve cups every 24 hrs. After 72 hrs., the sieve cups were removed.

[1] = tested on: cercariae of Schistosoma mansoni; test: In vitro effects of DEET on S. mansoni cercariae (viability by neutral red); assay type: cell-based
Protocol: FIG. 1 illustrates the in vitro effects of DEET on S. mansoni cercariae. In vitro effects of DEET on cercariae of Schistosoma mansoni. Cercariae were placed in 96 well titre plates coated previously with a serial doubling dilutions of DEET ranging from 30% to 0.24%. At different time periods after exposure to DEET, the percent viability of cercariae was evaluated by neutral red exclusion method. The experiment was repeated 17 times with an “n” of 189 to 440 cercariae for each treatment.
Based on the foregoing observations, DEET was tested for its effects on S. mansoni cercariae. DEET is commercially available and was purchased from Fluka Chemicals Corp. (Ronkonkoma, N.Y.). For in vitro studies, serial doubling dilutions of DEET ranging from 30% to 0.24% were prepared in isopropanol(Sigma, St. Louis, Mo.) and 50 μl of each dilution was transferred to individual wells of a 96 well flat bottom micro titre plate (Costar, Cambridge, Mass.). Control wells received 50 μl of isopropanol each. The plates were then kept covered in a fume hood and the fluid was allowed to evaporate overnight. The following day approximately 50 cercariae of S. mansoni suspended in 50 μl of RPMI-1640 media (pH 7.4; Gibco BRL) or phosphate buffered saline (PBS, pH 7.0) was placed in each well and the viability of the cercariae were monitored at 30 min, 60 min, and 4 hrs. A total of 17 replicas were performed for each dilution and for each time point in any one given experiment. To determine the viability of cercariae, 10 μl of a 0.05% Neutral Red (Sigma Chemical Co.) was added to each well at the end of the experiment and the percentage of live and dead cercariae was determined as described in He et al., Acta Zoologica Sinica, 31:240-245 (1985).

For `CCN(CC)C(=O)c1cccc(C)c1` [DEET, N,N-diethyl-m-toluamide], the “duration of effect under field condition” value (insects) is given as “eight hours”, the “initial time with no tick attachment” value (Amblyoma americanum; 10% DEET on rabbit ear, normal rabbits 20 hours) is given as 22.0 h and the adult ticks attached (Amblyoma americanum; 20%, adults, by 48 hrs (2/10)) is given as 20%. The adult ticks attached (Amblyoma americanum; 20%, adults, by 72 hrs (6/15)) was 40%, the “prevention of adult tick attachment” value (Amblyoma americanum; 20%, adults, up to 24 hrs) was “prevented tick attachment” and the “reduction of attachment of A. americanum nymphs to rabbit ear” value (Amblyoma americanum; 20%, from 24 to 72 hrs, untreated 40% attached) was 50%. For the same compound, the “site of tick attachment, half of the skin in the sieve cup treated” value (Amblyoma americanum; 40%, adult A. americanum, after 72 hrs) was “ticks were seen attached to both treated and untreated surfaces”, the adult ticks attached (Amblyoma americanum; 40%, adults, at 48 hrs (1/10)) was 10% and the adult ticks attached (Amblyoma americanum; 40%, adults, by 72 hrs (3/15)) was 20%. The “ticks attached to the skin” value (Amblyoma americanum; 40%, nymphs, by 48 hrs) was 20%, the “prevention of tick attachment” value (Amblyoma americanum; 40%, nymphs, up to 24 hrs) was “completely prevented tick attachment to the skin” and the “time to immobilize all the cercariae” value ([1]; DEET 7.5%) was at most 5 min. For the same compound, the cercariae dead ([1]; DEET 7.5%, by 4 hours) was 100%, the immobilization of cercariae ([1]; DEET at concentrations of 15% and above) was “immediately immobilized” and the “cercariae dead (neutral red staining)” value ([1]; DEET at concentrations of 15% and above, 30 minutes) was 100%. For the same compound, the “immobilizing or killing of cercariae” value ([1]; concentrations below 7.5% of DEET) was “less effective in immobilizing or killing cercariae”.
